# According to patent US8227418B2 (priority 2004, dated 2012):
# What was measured:
# [1] = tested on: ERK and p38 MAPK phosphorylation in RAW 264.7 cells; assay type: cell-based, murine
# [2] = tested on: cleavage of MKK3b by LF in RAW 264.7 macrophages; assay type: cell-based, murine
# [3] = tested on: anthrax LeTx cytolysis of RAW 264.7 cells
# [4] = target: LF (anthrax lethal factor) (Bacillus anthracis, UniProt P15917); assay type: biochemical, B. anthracis
# LeTx intoxication = tested on: LeTx intoxication; set-up: species or system Balb/c mice; conditions: mouse, in vivo, iv
Substance,Restoration of ERK and p38 phosphorylation inhibited by LeTx [1],Inhibition of MKK3b cleavage in LeTx treated cells [2],Prevention of LeTx toxicity by pre-treatment of macrophages [3],Protection of RAW 264.7 cells 24 hrs after LeTx treatment [3],Protection of RAW 264.7 cells against cytotoxicity by LeTx (co-treatment) [3],Protection of RAW 264.7 cells from LeTx induced cytotoxicity under serum-supplemented conditions [3],Inhibition of in vitro MKK3b proteolysis by LF [4],Protection of mice from LeTx intoxication (survival) (LeTx intoxication)
HNP-1,phosphorylation of these two MAPKs was restored,efficiently inhibited,prevented LeTx toxicity in a HNP-1 dose dependent manner,protection was observed even 24 hrs after LeTx treatment,completely abolished cytotoxicity,still protected cells from LeTx induced cytotoxicity,proteolysis was efficiently inhibited,–
HNP-2 (CYCRIPACIAGERRYGTCIYQGRLWAFCC; homo sapiens),–,–,–,–,showed similar protection,–,–,–
LL-37,–,–,–,–,did not display any significant effect,–,did not prevent cleavage of MKK3b,had no effect on LeTx toxicity
Magainin I,–,–,–,–,–,–,did not prevent cleavage of MKK3b,–
